Patent US20050143357A1 (priority 2002, published 2005)

Columns and labels:
[1] = system: upstream regulatory portion of the VDUP-1; assay: VDUP-1 regulatory region luciferase reporter assay in transiently transfected LNCaP cells; assay type: cell-based, human; conditions: VDUP-1 regulatory portion fused to luceferase gene, different time points, luminometer
Experimental: A human cell line, LNCaP was transiently transfected with a DNA vector composed of the upstream regulatory portion of the VDUP-1 fused to the gene encoding luceferase. The procedures to carry out transfection were essentially as described in example 2. At different time points a steroid with androgen properties, exemplified as R1881, were added to cell cultures, as was calcitriol (vitamin D). At different time points, luciferace activity in cell extracts was measured using a luminometer. The outcome of this experiment was that the level of luceferase was decreased by the steroid and was increased by vitamin D.

5 α-reduotase = conditions: once it enters prostate cells, by 5 α-reduotase; cited from earlier work

| Structure (SMILES) | level of luceferase (luciferace activity in cell extracts) [1] | fraction converted to dihydrotestosterone (DHT) (5 α-reduotase) |
| --- | --- | --- |
| C[C@]1(O)CC[C@H]2[C@@H]3CCC4=CC(=O)CCC4=C3C=C[C@@]21C [R1881] | decreased |  |
| C[C@]12CC[C@H]3[C@@H](CCC4=CC(=O)CC[C@@]43C)[C@@H]1CC[C@@H]2O [Testosterone] |  | about 90% |
| C=C1/C(=C\C=C2/CCC[C@]3(C)[C@@H]([C@H](C)CCCC(C)(C)O)CC[C@@H]23)C[C@@H](O)C[C@@H]1O [calcitriol] | increased |  |
